Laboratory results: patent US20250163119A1, “COMPOUNDS FOR THE TREATMENT OF DIABETES OR OBESITY” (Eli Lilly and Company, priority 2023, published 2025)
Where “and” joins values, the source holds several entries; their conditions need not be identical. Identical values can stand only once. *1 amine or outer side, *2 acyl side, *3 side chain or, on linkers, in order; H or OH if unused. Where a SMILES comes first, the peptide text is derived from it. Side-chain parts run from the residue outwards. [ ]: non-standard residue; d: D form. The star is where a group is joined. C20 diacid = O=C(O)CCCCCCCCCCCCCCCCCCC(=O)*; γGlu = O=C(O)[C@H](CCC(=O)[*:2])N[*:1]; αMeL = CC(C)C[C@](C)(N)C(=O)O; AEEA = NCCOCCOCC(=O)O

Assays:
[1] = Pharmacokinetics in Yucatan mini-pigs, single subcutaneous or intravenous dose; assay type: in vivo
Protocol: Plasma concentrations of compounds were determined by LC/MS methods. For each assay, the compound and an internal standard (IS), were extracted from 100% mouse, rat, pig, or monkey plasma (70 μL) using Isopropanol-Methanol. Two distinct layers were formed upon centrifugation with the compound and the IS located in the supernatant layer. An aliquot of the supernatant (150 μL) was transferred to a Waters Sirocco Protein Precipitation Plate. The supernatant was eluted using a positive pressure manifold. The supernatant was mixed with 100-2 Water-Formic acid (400 μL) in a pretreated Sep-Pak tC18 SPE plate and eluted to waste. The peptide and IS were eluted with Acetonitrile-Formic acid (100 μL) in 2 steps (50 μL each step). The elution (40 μL) from SPE plate was mixed with diluent solution (1.875 μL 5× invitrosol and 3.125 μL 1% formic acid in water, 80 μL). A final sample (10 μl) was loaded onto a Xselect CSH C18 IS column (3.5 μm 2.1×20 mm). The column effluent was directed into a Thermo Fisher Scientific Orbitrap (Exploris 240) mass spectrometer for detection and quantitation.
Male Yucatan mini-pigs were administered a single subcutaneous dose or intravenous dose (19 or 99 nmol/kg) of compound in 40 mM Tris-HCl 5% D-mannitol (pH 8) at a volume of 0.01 or 0.05 mL/kg. Blood was collected from each animal at 0.083 (IV only), 0.5, 3, 6, 24, 48, 72, 96, 168, 240, 336, 408, and 504 hours postdose for pharmacokinetic characterization.

[2] = Pharmacokinetics in Sprague Dawley rats, single subcutaneous or intravenous dose (incl. 10, 30, 100 nmol/kg dose response); assay type: in vivo; details: for Tmax: read-out: Tmax
[3] = test system: MHC-II presented peptides on human dendritic cells; test: MAPPS assay (MHC-Associated Peptide Proteomics); assay type: cell-based
In short: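 Peptides eluted from anti-MHC-II immunoprecipitates of day-6 DC lysates were sequenced by MS, mapped onto the parent test molecule, and scored as percentage of donors presenting each region. DCs derived from donor CD14+ cells (IL-4, GM-CSF) received test molecules on day 4, then LPS maturation on day 5.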

[4] = male Yucatan pigs, single subcutaneous dose 99 nmol/kg, individual animal
[5] = male, Yucatan mini-pig, minipig, plasma, iv, 99 nmol/kg, single intravenous dose 99 nmol/kg, mean
[6] = single intravenous dose 99 nmol/kg, male Yucatan pigs, individual animal
[7] = male, Sprague Dawley, rat, plasma, iv, 197 nmol/kg, single intravenous dose 197 nmol/kg, individual animal
[8] = male, Sprague Dawley, rat, plasma, iv, 197 nmol/kg, single intravenous dose 197 nmol/kg, mean
[9] = male, Sprague Dawley, rat, plasma, sc, 197 nmol/kg, single subcutaneous dose 197 nmol/kg, individual animal
[10] = male, Sprague Dawley, rat, plasma, sc, 197 nmol/kg, single subcutaneous dose 197 nmol/kg, mean
[11] = single intravenous dose 197 nmol/kg, male Sprague Dawley rats, individual animal
[12] = single subcutaneous dose 197 nmol/kg, male Sprague Dawley rats, individual animal

## CC[C@H](C)[C@H](NC(C)=O)C(=O)N[C@H](C(=O)N[C@H](C(=O)N[C@@H](CO)C(=O)N[C@@](C)(CC(C)C)C(=O)N[C@@H](CC(=O)O)C(=O)N[C@@H](C(=O)N1CCC[C@H]1C(=O)N[C@H](C(=O)NCC(=O)N[C@@](C)(CC(C)C)C(=O)N[C@@H](CC(C)C)C(=O)N[C@@H](CCC(N)=O)C(=O)N[C@H](C(=O)N[C@@H](CCCCN)C(=O)N[C@@H](CC(C)C)C(=O)N[C@@H](CCC(=O)O)C(=O)N[C@@H](CCC(N)=O)C(=O)N[C@@H](CCC(=O)O)C(=O)N[C@@H](CCCNC(=N)N)C(=O)N[C@@H](C)C(=O)N[C@@H](CCC(=O)O)C(=O)N[C@@H](CCCCN)C(=O)N[C@@H](C)C(=O)N[C@@H](CCCNC(=N)N)C(=O)N[C@@H](CCC(N)=O)C(=O)N[C@@H](CCC(N)=O)C(=O)N[C@@H](C)C(=O)N[C@@H](CCCCNC(=O)COCCOCCNC(=O)COCCOCCNC(=O)CC[C@H](NC(=O)CCCCCCCCCCCCCCCCCCC(=O)O)C(=O)O)C(=O)N[C@@H](CCC(=O)O)C(=O)N[C@@H](CC(N)=O)C(=O)N[C@H](C(=O)N[C@@H](CCC(=O)O)C(=O)N[C@H](C(=O)N[C@@H](CC(C)C)C(=O)N[C@@H](C)C(=O)N[C@@H](CCC(N)=O)C(=O)N[C@H](C(N)=O)C(C)C)[C@@H](C)CC)[C@@H](C)O)[C@@H](C)CC)[C@@H](C)O)C(C)C)[C@@H](C)O)C(C)C [SEQ ID NO: 29, Ac-IVTS αMeL D (D-Val) PTG αMeL LQIKLEQERAEKARQ QAK((2-[2-(2-Amino-ethoxy)-ethoxy]-acetyl)2-γE-CO-(CH2)18-CO2H)ENTEILAQV-NH2] (Ac-IVTS[αMeL]D[dV]PTG[αMeL]LQIKLEQERAEKARQQAK([AEEA-AEEA-γGlu-C20 diacid])ENTEILAQV-NH2)
[1]; Yucatan mini-pig, minipig, plasma, sc, male Yucatan pigs, single subcutaneous dose 99 nmol/kg, Mean, read-out: AUC0-inf
  AUC0-inf: 76.4 µM·h
[1]; Yucatan mini-pig, minipig, plasma, sc, male Yucatan pigs, single subcutaneous dose 99 nmol/kg, Mean, read-out: Cmax
  Cmax: 259 nM
[1]; [4]
  AUC0-inf: 128 µM·h and 67.5 µM·h and 33.8 µM·h
  CL/F: 1.03 mL/h/kg and 2.06 mL/h/kg and 3.56 mL/h/kg
  Cmax: 497 nM and 201 nM and 79.6 nM
  T1/2: 292 h and 185 h
  Tmax: 168 h
[1]; male, Yucatan mini-pig, minipig, plasma, iv, 99 nmol/kg, single intravenous dose 99 nmol/kg, individual animal
  clearance: 0.321 mL/h/kg
[1]; [5]
  clearance: 0.356 mL/h/kg
  half-life: 166 h
[1]; male, Yucatan mini-pig, minipig, plasma, sc, 99 nmol/kg, single subcutaneous dose 99 nmol/kg, Mean
  half-life: 214 h
[1]; male, Yucatan mini-pig, minipig, plasma, sc, 99 nmol/kg, single subcutaneous dose 99 nmol/kg, Mean, read-out: CL/F (converted)
  CL/F: 2.22 mL/h/kg
[1]; male, Yucatan mini-pig, minipig, plasma, sc, 99 nmol/kg, single subcutaneous dose 99 nmol/kg, Mean, read-out: Tmax
  Tmax: 72 h
[1]; male, Yucatan mini-pig, minipig, plasma, sc, 99 nmol/kg, single subcutaneous dose 99 nmol/kg, individual animal
  half-life: 166 h
[1]; minipig, plasma, single intravenous dose 99 nmol/kg, male Yucatan pigs, mean, read-out: AUC0-inf
  AUC0-inf: 285 µM·h
[1]; minipig, plasma, single intravenous dose 99 nmol/kg, male Yucatan pigs, mean, read-out: C0
  C0: 2490 nM
[1]; [6]
  AUC0-inf: 307 µM·h and 220 µM·h and 329 µM·h
  C0: 2530 nM and 2560 nM and 2380 nM
  CL: 0.448 mL/h/kg and 0.299 mL/h/kg
  T1/2: 109 h and 126 h and 263 h
[2]; [7]
  clearance: 1.66 mL/h/kg
  half-life: 41.7 h
[2]; [8]
  clearance: 1.47 mL/h/kg
  half-life: 45.5 h
[2]; [9]
  half-life: 52.8 h
  Tmax: 24 h
[2]; male, Sprague Dawley, rat, plasma, sc, 197 nmol/kg, single subcutaneous dose 197 nmol/kg, individual animal, read-out: CL/F (converted)
  CL/F: 2.35 mL/h/kg
[2]; [10]
  half-life: 47 h
  Tmax: 24 h
[2]; male, Sprague Dawley, rat, plasma, sc, 197 nmol/kg, single subcutaneous dose 197 nmol/kg, mean, read-out: CL/F (converted)
  CL/F: 2.48 mL/h/kg
[2]; rat, plasma, sc, single subcutaneous dose 197 nmol/kg, male Sprague Dawley rats, mean, read-out: AUC0-inf
  AUC0-inf: 89.9 µM·h
[2]; rat, plasma, sc, single subcutaneous dose 197 nmol/kg, male Sprague Dawley rats, mean, read-out: Cmax
  Cmax: 815 nM
[2]; rat, plasma, single intravenous dose 197 nmol/kg, male Sprague Dawley rats, mean, read-out: AUC0-inf
  AUC0-inf: 136 µM·h
[2]; rat, plasma, single intravenous dose 197 nmol/kg, male Sprague Dawley rats, mean, read-out: C0
  C0: 4270 nM
[2]; [11]
  AUC0-inf: 119 µM·h and 152 µM·h and 136 µM·h
  C0: 6910 nM and 4840 nM and 1050 nM
  CL: 1.30 mL/h/kg and 1.45 mL/h/kg
  T1/2: 45.2 h and 49.6 h
[2]; [12]
  AUC0-inf: 96.8 µM·h and 82.9 µM·h
  CL/F: 2.61 mL/h/kg
  Cmax: 881 nM and 749 nM
  T1/2: 41.1 h
[3]; donors displaying MHC-II peptides / donors tested
  MAPPS Assay >10 donors with diverse MHC: 8/30
[3]; human dendritic cells from normal donors
  peptides displayed on MHC-II complexes: at least one peptide cluster on MHC-II complexes in a subset of donors
[3]; in the MAPPs assay and/or the T cell proliferation assay
  immunogenicity compared with SEQ ID NO:54: substantial improvements in immunogenicity over a compound comprising SEQ ID NO:54
[3]; percentage of donors displaying MHC-II peptides
  MAPPS Assay >10 donors with diverse MHC: 27%
